In patent publication US4916231A, “Alkenyltetrazole derivatives” (Shionogi & Co., Ltd., priority 1988, dated 1990):
Where a name gives a salt, the structure may show the parent alone. Read-outs that look alike come from different tables or passages of the source.

Tests used:
Rats Washed Platelet = assay: in vitro rat washed platelet aggregation test (collagen-induced); type: cell-based, rat (Sprague-Dowley); settings: 0.05 h, inducer collagen 4 μg/ml, 37° C., 3 minutes after inducer, read-out: 50% Inhibitory Concentration (IC50), Inhibition of Aggregation for Rats Washed Platelet
Description: From the abdominal artery of a male rat (Sprague-Dowley, 8 weeks old) was collected 10 ml of blood with a syringe containing 1.5 ml of ACD (85 mM of sodium citrate, 70 mM of citric acid, 110 mM of glucose) and 20 μg of prostaglandin E1. The blood is placed in a plastic test tube, shaken moderately turning and centrifuged for 10 minutes at 160×g to give platelet rich plasma (PRP). To the prepared PRP was added apyrase (25 μg/ml) and the mixture was layered on 40% bovine serum albumin. The resulting mixture is centrifuged at 1200×g for 25 minutes.
The platelet aggregation reaction was measured by an aggregometer (NKK HEMA TRACER 1 MODEL PAT-6A.6M, Niko bioscience). In a measuring cuvette was placed 245 μl of the washed platelet of which platelet number was adjusted to 5×10^5 /μl and set in the aggregometer. The washed platelet was stirred (1000 rpm) at 37° C. and 3.8 µl of 0.1M of CaCl2 was added thereto. One minute later, 0.5 µl of a solution of a test compound in dimethylsulfoxide was added and 2 minutes later, 1 µl of collagen (Collagen reagent Horm®, HORMON-CHEMIE Munchen GMBH, final concentrate 4 μg/ml) as an inducer for platelet aggregating was added. The platelet aggregation was monitored with an aggregometer in terms of the increase and decrease in transmittancy.

Guinea Pig Platelet = assay: Long Acting Inhibitory effect for Guinea Pig Platelet Aggregation (ex vivo), arachidonic acid-induced; type: in vivo, guinea pig (Slc- Hartley); settings: for AA (100 μM)-Induced Platelet Aggregation (%): 0.5 mg/kg, mean ± S.E., 5 guinea pigs
Description: A solution of test compound in physiological saline was administered (dosage: 0.5 mg/kg, dosage volume: 2 ml/Kg) to a guinea pig (Slc- Hartley, male, 9 weeks old, weight 520 to 590 g).
Inhibitory effect for platelet aggregation was measured in 1, 3, and 6 hours after administration of the test compounds.
Under sodium pentobarbital anesthesia, blood was collected from the abdominal artery in such the ratio that 3.8% sodium citrate solution/blood was 1 volume/9 volume.
The blood centrifuged for 15 minutes at 180×g at 22° C. to give platelet rich plasma (PRP). The remaining blood was further centrifuged at 3,000 rpm for 10 minutes at 22° C. to give platelet-poor plasma (PPP).
The platelet aggregation test was performed according to Born's method [Born, G.V.R., Nature, 194, 927-929 (1962)], using an aggregometer (model AUTO RAM-61, Rika Denki Kogyo CO., Ltd.). 400 µl of PRP, whose platelets number was prepared to count 50-55×10^4 /μl, was placed in a measuring cuvette and set in the aggregometer. PRP was stirred for 1 minute (at 1,200 rpm) at 37° C. and preliminarily warmed. As an inducer for platelet aggregating, 100 µl of arachidonic acid (sodium salt, Sigma) was added and the platelet aggregation was monitored with an aggregometer in terms of the increase and decrease in light transmission.
Setting the light transmittance for PRP at 0% of platelet aggregating rate, and that for PPP at 100%, the maximum light transmittance for the sample, after the addition of the inducer for platelet aggregating, was regarded as the maximum platelet aggragation rate.
The inhibitory rate for aggregation (%) was calculated from the ratio of the maximum aggregation rate in the test-compound-added group to that in the control group (carrier-added group).

[1] = test system: sodium arachidonate-induced pulmonary thromboembolic death in mice; assay: Protective effects on sodium arachidonate-induced pulmonary thromboembolic death in mice; type: in vivo, mice (DDY); settings: for ED50: Mus musculus, iv, 1 h, into tail vein, mortality at 1 hour, read-out: ED50 (95% confidence limit)
Description: The mice (DDY, 4 weeks old, male, weight 20 to 25 g) in a group of ten are used.
Pulmonary thromboembolic death was induced by injecting 99% solution of sodium arachidonate (Sigma) in physiological saline [100 mg/kg (100% pulmonary thromboembolic death was induced in this amount.)] into tail vein. In order to examine the duration time of the test compound, sodium arachidonate was administrated in 15 minutes and 60 minutes after an administration of a solution of the test compounds in physioligical saline into tail vein. The mortality at 1 hour was determined and ED50 was calculated by probit method.

With `O=S(=O)(N[C@H]1[C@H]2CC[C@H](C2)[C@@H]1C/C=C\CCCc1nnn[nH]1)c1ccccc1` (relative stereo) [Iaa-b, (1R*,2S*,3S*,4S*)-3-phenylsulfonylamino-2-[(2Z)-6-(5-tetrazolyl)hex-2-enyl]bicyclo[2.2.1]heptane] the IC50 (Rats Washed Platelet) was 3 nM, the “AA (100 μM)-Induced Platelet Aggregation (%)” value (from here on “AA … (%)”) (Guinea Pig Platelet; 0 hours after p.o. administration) was 89.7 ± 1.4% and the “inhibition of arachidonic acid induced platelet aggregation” value (Guinea Pig Platelet; 1 and 3 hours after administration) was “significantly inhibited”. The “AA … (%)” value (Guinea Pig Platelet; 1 hour after p.o. administration, * p < 0.05) was 2.5 ± 2.0%, the “AA … (%)” value (Guinea Pig Platelet; 3 hours after p.o. administration, * p < 0.05) was 19.0 ± 18.0% and the “inhibition of arachidonic acid induced platelet aggregation” value (Guinea Pig Platelet; 6 hours after administration) was “still observed”. For the same compound, the “AA … (%)” value (Guinea Pig Platelet; 6 hours after p.o. administration) was 56.3 ± 20.4%, the “duration of action” value (Guinea Pig Platelet; conclusion of ex vivo test) was “long acting” and the “inhibitory potency, 15 vs 60 minutes pretreatment” value ([1]; 15 minutes and 60 minutes pretreatment) was “did not show significantly different inhibitory potency”. For the same compound, the “inhibitory effect of 60 minutes pretreatment” value ([1]; 60 minutes pretreatment) was “rather stronger inhibitory effect”, the ED50 ([1]; pretreatment 15 min) was 1.8 mg/kg and the ED50 ([1]; pretreatment 60 min) was 1.5 mg/kg. For the same compound, the “duration of action” value ([1]; conclusion of mouse test) was “long-acting”.

`O=S(=O)(N[C@H]1[C@H]2CC[C@H](C2)[C@@H]1C/C=C\CCCc1nn[nH]n1)c1ccc(Br)cc1` (relative stereo) [Iac-b, (1R*,2S*,3S*,4S*)-3-(4-bromophenylsulfonylamino-2-[(2Z)-6-(5-tetrazolyl)hex-2-enyl]bicyclo[2.2.1]heptane] gave an IC50 (Rats Washed Platelet) of 2 nM.

For `O=S(=O)(N[C@H]1[C@H]2CC[C@H](C2)[C@@H]1C/C=C\CCCc1nnn[nH]1)c1ccc(O)cc1` (relative stereo) [Iad-b, (1R*,2S*,3S*,4S*)-3-(4-hydroxyphenylsulfonylamino)-2-[(2Z)-6-(5-tetrazolyl)hex-2-enyl]bicyclo[2.2.1]heptane], the IC50 (Rats Washed Platelet) was 2 nM.

In the case of `CC1(C)[C@H]2C[C@H](C/C=C\CCCc3nnn[nH]3)[C@@H](NS(=O)(=O)c3ccc(Cl)cc3)[C@@H]1C2` [Iej-b, (1R,2R,3S,5S)-2-[(4-chlorophenyl)sulfonylamino]-3-[(2Z)-6-(5-tetrazolyl)hex-2-enyl]-6,6-dimethylbicyclo [3.1.1]heptane], the IC50 (Rats Washed Platelet) is reported as 7 nM.

For `O=S(=O)(N[C@H]1[C@H](C/C=C\CCCc2nnn[nH]2)[C@H]2CC[C@@H]1O2)c1ccccc1` (relative stereo) [Ica-b, (1R*,2S*,3S*,4S*)-3-phenylsulfonylamino-2-[(2Z)-6-(5-tetrazolyl)hex-2-enyl]-7-oxabicyclo[2.2.1]heptane], the IC50 (Rats Washed Platelet) was 10 nM.

`CC1(C)[C@H]2C[C@H](C/C=C\CCCc3nnn[nH]3)[C@@H](NS(=O)(=O)c3ccc4ccccc4c3)[C@@H]1C2` [Iei-b, (1R,2R,3S,5S)-2-[(2-naphthyl)sulfonylamino]-3-[(2Z)-6-(5-tetrazolyl)hex-2-enyl]-6,6-dimethylbicyclo[3.1.1]-heptane] showed an IC50 (Rats Washed Platelet) of 9 nM.

For `CC1(C)[C@H]2C[C@H](C/C=C\CCCc3nnn[nH]3)[C@@H](NS(=O)(=O)c3ccccc3Cl)[C@@H]1C2` [Iel-b, (1R,2R,3S,5S)-2-[(2-chlorophenyl)sulfonylamino]-3-[(2Z)-6-(5-tetrazolyl)hex-2-enyl]-6,6-dimethylbicyclo [3.1.1]heptane], the IC50 (Rats Washed Platelet) was 20 nM.

For `CC1(C)[C@H]2C[C@H](C/C=C\CCCc3nnn[nH]3)[C@@H](NS(=O)(=O)c3ccccc3)[C@@H]1C2` [Iea-b, (1R,2R,3S,5S)-2-phenylsulfonylamino-3-[(2Z)-6-(5-tetrazolyl)hex-2-enyl]-6,6-dimethylbicyclo[3.1.1]heptane], the IC50 (Rats Washed Platelet) was 20 nM.

For `Cc1ccc(S(=O)(=O)N[C@H]2[C@H]3CC[C@H](C3)[C@@H]2C/C=C\CCCc2nn[nH]n2)cc1` (relative stereo) [Iab-b, Sodium salt of (1R*,2S*,3S*,4S*)-2-[(2Z)-6-(5-tetrazolyl)hex-2-enyl]-3-(4-tolylsulfonylamino)bicyclo[2.2.1]-hepatane], the IC50 (Rats Washed Platelet) was 2 nM.

`CC1(C)[C@H]2C[C@H](C/C=C\CCCc3nnn[nH]3)[C@@H](NS(=O)(=O)c3ccc(-c4ccccc4)cc3)[C@@H]1C2` [Ieh-b, (1R,2R,3S,5S)-2-[(4-biphenylyl)sulfonylamino]-3-[(2Z)-6-(5-tetrazolyl)hex-2-enyl]-6,6-dimethylbicyclo[3.1.1]heptane] was tested, and the IC50 (Rats Washed Platelet) was 10 nM.

Compound `CC1(C)[C@H]2C[C@H](C/C=C\CCCc3nnn[nH]3)[C@@H](NS(=O)(=O)c3ccc(Br)cc3)[C@@H]1C2` [Iec-b, (1R,2R,3S,5S)-2-[(4-bromophenyl)sulfonylamino]-3-[(2Z)-6-(5-tetrazolyl)hex-2-enyl]-6,6-dimethylbicyclo[3.1.1]heptane] has an IC50 (Rats Washed Platelet) of 2 nM.

`O=S(=O)(N[C@@H]1[C@@H](C/C=C\CCCc2nnn[nH]2)[C@H]2CC[C@@H]1O2)c1ccccc1` (relative stereo) [Iba-b, (1R*,2R*,3R*,4S*)-3-phenylsulfonylamino-2-[(2Z)-6-(5-tetrazolyl)hex-2-enyl]-7-oxabicyclo[2.2.1]heptane] was tested, and the IC50 (Rats Washed Platelet) was 20 nM.

`O=S(=O)(N[C@H]1[C@H]2CC[C@H](C2)[C@@H]1C/C=C\CCCc1nnn[nH]1)c1ccccc1` [(+)-Iaa-b, (1R,2S,3S,4S)-3-phenylsulfonylamino-2-[(2Z)-6-(5-tetrazolyl)hex-2-enyl]bicyclo[2.2.1]heptane] was tested, and the IC50 (Rats Washed Platelet) was 2 nM.

For `COc1ccc(S(=O)(=O)N[C@H]2[C@H]3CC[C@H](C3)[C@@H]2C/C=C\CCCc2nnn[nH]2)cc1` (relative stereo) [Iae-b, (1R*,2S*,3S*,4S*)-3-(4-methoxyphenylsulfonylamino)-2-[(2Z)-6-(5-tetrazolyl)hex-2-enyl]bicyclo[2.2.1]heptane], the IC50 (Rats Washed Platelet) was 2 nM.

`CC1(C)[C@H]2C[C@H](NS(=O)(=O)c3ccccc3)[C@@H](C/C=C\CCCc3nn[nH]n3)[C@@H]1C2` [Ida-b] was tested, and the IC50 (Rats Washed Platelet) was 3 nM.

Compound `COc1ccc(S(=O)(=O)N[C@@H]2[C@@H](C/C=C\CCCc3nnn[nH]3)C[C@H]3C[C@@H]2C3(C)C)cc1` [Iee-b, (1R,2R,3S,5S)-2-[(4-methoxyphenyl)sulfonylamino]-3-[(2Z)-6-(5-tetrazolyl)hex-2-enyl]-6,6-dimethylbicyclo [3.1.1]heptane] has an IC50 (Rats Washed Platelet) of 5 nM.

Compound `Cc1ccc(S(=O)(=O)N[C@@H]2[C@@H](C/C=C\CCCc3nnn[nH]3)C[C@H]3C[C@@H]2C3(C)C)cc1` [Ieb-b, (1R,2R,3S,5S)-2-(p-tolylsulfonylamino)-3-[(2Z)-6-(5-tetrazolyl)hex-2-enyl]-6,6-dimethylbicyclo[3.1.1]-heptane] has an IC50 (Rats Washed Platelet) of 4 nM.

With `CC1(C)[C@H]2C[C@H](C/C=C\CCCc3nnn[nH]3)[C@@H](NS(=O)(=O)c3cccc(Cl)c3)[C@@H]1C2` [Iek-b, (1R,2R,3S,5S)-2-[(3-chlorophenyl)sulfonylamino]-3-[(2Z)-6-(5-tetrazolyl)hex-2-enyl]-6,6-dimethyl-bicyclo [3.1.1]heptane] the IC50 (Rats Washed Platelet) was 5 nM.
